Assay results: US20140315717A1 (priority 2006, published 2014)
Several values for one entry are separate records, joined by “and”; a condition that tells them apart may be missing. Identical values can stand only once. Like-named read-outs stand apart in the source and are kept apart here.

Legend:
[1] = system: soybean plants; type: in vivo
Source text: (§1) Transgenic and control soybean seeds (cultivars Thorne, NE3001, A3525) were planted into 3.5-inch square plastic pots containing Redi-Earth™ (Scotts-Sierra Horticultural Products Co., Marysville, Ohio). The pots were placed on capillary matting in 35 inch×60 inch fiberglass watering trays for overhead and/or sub-irrigation for the duration of the test period so as to maintain optimum soil moisture for plant growth and were fertilized with Osmocote® (14-14-14 slow release; Scotts-Sierra Horticultural Products Co., Marysville, Ohio) at the rate of 100 gm/cu. ft. to sustain plant growth for the duration of greenhouse trials.
(§2) A 14 hour minimum photoperiod was provided with supplemental light at about 600 μE (micro-Einsteins) as needed. Trials were established in a randomized block design randomized by rate with 4 to 6 replications of each treatment.
(§3) All herbicide applications were made with the track sprayer using a Teejet® 9501E flat fan nozzle (Spraying Systems Co, Wheaton, Ill.) with air pressure set at a minimum of 24 psi (pounds per square inch), or 165 kpa (kilopascals)). The spray nozzle was kept at a height of about 16 inches above the top of plant material for spraying. The spray volume was 10 gallons per acre or 93 liters per hectare. Applications were made when plants had reached V-3 stage.
For this example, the plants were grown as described in the above example. Transgenic and non transgenic soybean plants carrying the DMO gene in their genome were either treated with Paraquat (Gramoxone®; Syngenta) to create oxidative stress or with dicamba followed by Paraquat at V3 stage. The dicamba rate was 1 lb/acre or 1120 g ae/ha. Paraquat was applied at 30, 70, or 200 g ae/ha. Plants were then evaluated for paraquat injury by visually assessing injury at a particular day after treatment (DAT) for injury on a scale of 0 to 100 percent relative to untreated control plants, with zero representing “no” injury and 100% representing “complete” injury or death. Data were collected and analyzed using suitable statistical methods.
In another experiment, the effect of externally applied DCSA was tested for its benefit in protecting soybean plants from oxidative stress injury caused by Paraquat. Different amounts of DCSA were applied 24 hrs before applying Paraquat to test any correlation between the amount of DCSA applied and the extent of protection obtained from oxidative stress measured in terms of reduction in % injury as described above. Different levels of dicamba were also applied separately to test the same hypothesis.

[2] = system: PR-2, i.e., β-1,3-glucanase; experiment: Induction of PR-2 mRNA (northern blot) in DMO soybean after spraying; type: in vivo; conditions: for induction of PR2 at various rates: 0.25, 0.5 and 1 lb/acre, 24 hrs after treatment, two independent transgenic soybean lines, FIG. 2
Source text: as §1, §2, §3
Leaf samples were harvested after 0, 3, 8, 24, 48, 72 hrs after treatment (HAT) and frozen for further analysis. […] RNA was extracted and analyzed by northern blot analysis using PR-2, i.e., β-1,3-glucanase as a probe.

[3] = system: soybean; conditions: DMO transgenic soybean, dicamba 1.5 lb ae/acre Pre and/or Post (V3-4), in 4/5 events and 13/15 treatments, FIG. 6
Experimental: The yield enhancing-benefit of DSCA was tested by growing non-transgenic and transgenic plants and applying dicamba to transgenic plants and harvesting the seeds. Non-transgenic and transgenic soybean seeds were planted near the beginning of the growing season in several locations at the time of best possible growth conditions such as soil moisture, temperature, and seeding depth. […] In all, 240 plots were planted at 6 locations (40 per location).
Four non-transgenic border rows were planted all around the trial using a known commercial line such as A3525. Optimum production and management practices known in the art were followed. Maximum pest control and disease control was practiced as needed to prevent confounding effects of dicamba applications. The field was irrigated as needed according to standard practices.

[4] = system: Verticillium dahliae; experiment: Protection of cotton against Verticillium wilt, seedling dipping inoculation; type: in vivo; conditions: for Plant survival rating (out of 10) / Severity rating (1-9): cotton ST6611, DCSA 1 lb/A, glyphosate 0.75 lb/A 24 hours before inoculation; for Severity rating (1-9): 1 healthy, 9 dead
Source text: DCSA was unexpectedly found to provide protection to cotton plants against Verticillium dahliae, causal agent of cotton wilt disease (Table 6). Cotton plants of the variety ST6611, BOLLGARD 2, ROUNDUP READY FLEX, were inoculated with a moderate isolate (DPL) or a virulent isolate (King) of Verticillium by a seedling dipping method. Seedlings at the first true leaf stage were taken out from the pots, one inch of roots were cut off, seedlings were dipped in a spore slurry for one minute, and then transplanted back in the pots. These strains were isolated and provided by Dr. Terry Wheeler (Texas A&M University, TX USA). DCSA was applied at the rate of 1 lb/A and glyphosate (ROUNDUP WEATHERMAX, Monsanto) at the rate of 0.75 lb/A 24 hours before inoculation. Protection against Verticillium was measured on a disease severity scale of 1-9: 1 being healthy and 9 being dead because of disease, and also was measured as the number of plants that survived out of 10 inoculated plants.

[5] = system: cotton plants; experiment: Paraquat (Gramoxone) oxidative stress injury in cotton, visual % injury; type: in vivo; conditions: for Percentage injury: 2 DAT, DCSA where applied 1 lb/acre 24 hours before
Experimental: Four different cotton cultivars as indicated in Table 3 were grown in 4-inch pots for two weeks. These cotton plants were either sprayed with DCSA (BASF) at the 1 lb/A rate, or unsprayed (no DCSA application, as control). Experimental plants (treated with DCSA and untreated) were sprayed with Paraquat (Gramoxone®; Syngenta) at 30 gm/ha, 70 gm/ha, and 100 gm/ha rates, 24 hours after the application of DCSA, to simulate oxidative stress. […] The same experiment was repeated at two different growth stages of cotton (2 nodes stage and 5 nodes stage).

[6] = system: Xanthomonas campestris pv. malvacearum; experiment: Bacterial blight tooth pick inoculation of sprayed cotton plants; type: in vivo; conditions: two-week old cotton, DCSA sprayed about 24 hours before inoculation, FIG. 4
Experimental: In this example, two-week old cotton plants were sprayed with DCSA while control plants received spray application of water only. The plants were inoculated with bacterial blight pathogen (Xanthomonas campestris pv. malvacearum) about 24 hours after the DCSA spray application using a tooth pick inoculation method. As shown in the FIG. 4, the cotton plants inoculated with the bacterial pathogen but not sprayed with DCSA developed necrotic spots, typical symptoms of bacterial blight. […] The results of this experiment indicate that DCSA application reduced bacterial infection on cotton plants when inoculated with bacterial pathogen 24 hours after the DCSA spray.

[7] = system: Pythium ultimum; experiment: Pythium ultimum inoculation of sprayed cotton seedlings; type: in vivo; conditions: cotton plants contacted with 3,6-DCSA; untreated plants are killed
Experimental: Ten-day old Roundup Ready® Flex Cotton (Event MON 88913; U.S. Publ. 20060059590) seedlings were sprayed with a mixture of Roundup Weather Max® (Monsanto, St. Louis, Mo.) and 3,6-DCSA (BASF). The control plants were sprayed with water only. The cotton seedlings from both treatments were inoculated with Pythium ultimum by dipping seedling into inoculum slurry, 24 hours after the spray application. The positive control plants were neither sprayed nor inoculated with P. P. ultimum. […] Cotton plants treated with Roundup® and DCSA were as healthy as were the plants not inoculated with P. ultimum.

[8] = system: Root Knot Nematode (RKN; Meloidogyne incognita); experiment: Control of cotton root knot nematode in cotton plants (ST474); type: in vivo; conditions: RKN + DCSA
Experimental: DCSA was unexpectedly found to control gall formation, improve plant height and reduce number of eggs produced by the nematode in cotton plants (ST474) (Table 5). Ten to fourteen days old cotton plants were treated with DCSA at the rate of […], 24 hrs before inoculating them with RKN eggs. […] Plant height, gall rating, and egg counts were measured 45 days after inoculation. The gall rating scale was 0-5 with 0=no visible galling and 5=heavy galling.

[9] = Verticillium isolate DPL (moderate)
[10] = Verticillium isolate King (virulent)
[11] = individual cotton plants 1-8, DCSA 24 hrs before inoculation, 45 days after inoculation

SMILES: COc1c(Cl)ccc(Cl)c1C(=O)O [Dicamba, 3,6-dichloro-2-methoxybenzoic acid]
- % injury at 5 DAT ([1]; in vivo): 65.00% and 54.17% and 45.83% and 51.67% and 40.83%
- Paraquat injury ([1]; in vivo): significantly reduced Paraquat injury
- protection against oxidative stress caused by subsequently applied paraquat ([1]; in vivo): provided protection against oxidative stress
- induction of PR2 at various rates [2]: induction of PR2
- induction of PR2 at various time points ([2]; DMO soybean, dicamba (Clarity) 1 lb/acre at Post-V3, leaf samples 0-72 HAT, FIG. 1): induction of PR2
- yield relative to unsprayed controls [3]: an increase or equivalent yield to unsprayed controls

SMILES: O=C(O)CNCP(=O)(O)O [Glyphosate, N-phosphonomethylglycine, reference compound]
- Plant survival rating (out of 10) [4, 9]: 10
- Severity rating (1-9) [4, 9]: 2
- Plant survival rating (out of 10) [4, 10]: 10
- Severity rating (1-9) [4, 10]: 3.5

SMILES: C[n+]1ccc(-c2cc[n+](C)cc2)cc1 [Paraquat]
- Percentage injury ([5]; cotton ST3273B2RF, Gramoxone 30 g a.i./ha): 35%
- Percentage injury ([5]; cotton ST3273B2RF, Gramoxone 70 g a.i./ha): 50%
- Percentage injury ([5]; cotton ST3273B2RF, Gramoxone 100 g a.i./ha): 50%
- Percentage injury ([5]; cotton ST4575BR, Gramoxone 100 g a.i./ha): 65%
- Percentage injury ([5]; cotton ST4646B2RF, Gramoxone 100 g a.i./ha): 70%
- Percentage injury ([5]; cotton ST6622RF, Gramoxone 70 g a.i./ha): 50%
- Percentage injury ([5]; cotton ST6622RF, Gramoxone 100 g a.i./ha): 70%
- % injury ([1]; N3001 (non-transgenic) soybean, paraquat 200 g ae/ha, V-3 stage, 4 DAT): 75%
- % injury at 5 DAT Paraquat alone control ([1]; transgenic event 462-1-21, paraquat 100 g ae/ha alone): 75.83%
- % injury at 5 DAT Paraquat alone control ([1]; transgenic event 469-13-19, paraquat 100 g ae/ha alone): 77.50%
- injury rate ([1]; transgenic soybean plants contacted with Paraquat alone): about 75%

SMILES: O=C(O)c1c(Cl)ccc(Cl)c1O [DCSA, 3,6-dichloro salicylic acid]
- bacterial blight symptoms [6]: only localized lesions (HR response) and no increase in bacterial blight symptoms
- Gramoxone injury ([5]; four varieties of RR cotton pretreated with DCSA (24 hours), two nodes stage and 5 nodes stage): reduced significantly
- % injury at 5 DAT ([1]; event 469-13-19, 280 g/ha of Dicamba or DCSA followed by 100 g ae/ha of paraquat): 50.83%
- % injury at 5 DAT ([1]; event 469-13-19, 561 g/ha of Dicamba or DCSA followed by 100 g ae/ha of paraquat): 48.33%
- % injury at 5 DAT ([1]; event 469-13-19, 1120 g/ha of Dicamba or DCSA followed by 100 g ae/ha of paraquat): 43.33%
- % injury at 5 DAT ([1]; in vivo): 66.67% and 53.33% and 49.17%
- protection against oxidative stress caused by subsequently applied paraquat ([1]; transgenic soybean, applied 24 hrs before Paraquat, reduction in injury increased with rate): provided protection against oxidative stress
- Plant survival rating (out of 10) [4, 9]: 10
- Severity rating (1-9) [4, 9]: 1
- Plant survival rating (out of 10) [4, 10]: 10
- Severity rating (1-9) [4, 10]: 2
- protection against Verticillium ([4]; cotton, isolates DPL and King, DCSA 1 lb/A 24 hours before inoculation): provided protection against both moderate and strong isolates of Verticillium dahliae
- induction of PR2 at various rates [2]: induction of PR2
- survival of cotton plants after inoculation with Pythium ultimum [7]: survive inoculation
- RKN Gall Rating (0-5) ([8]; individual cotton plants 1-8, 45 days after inoculation, 0=no visible galling, 5=heavy galling): 0 (4×) and 2 and 1 (3×)
- Egg Count/pot [8, 11]: 5,200 and 1,800 and 2,200
- Plant Height [8, 11]: 25.4 cm (3×) and 22.2 cm and 17.8 cm and 14.0 cm and 15.9 cm and 12.7 cm
- Plant Height, Mean ([8]; mean of 8 cotton plants, 45 days after inoculation): 19.8 cm
- RKN Gall Rating (0-5), Mean ([8]; mean of 8 cotton plants, 45 days after inoculation, 0=no visible galling, 5=heavy galling): 0.6
